From ChEMBL document CHEMBL4673317, “Linearolactone and Kaempferol Disrupt the Actin Cytoskeleton in Entamoeba histolytica: Inhibition of Amoebic Liver Abscess Development” (J Nat Prod, 2020)
Calls of active or inactive are those of the source. The calls are words filed in the database; no cut-off is given here.

How the values were obtained:
[1] = test system: Entamoeba histolytica; experiment: Induction of apoptosis in Entamoeba histolytica […] trophozoites assessed as late apoptotic cells at IC50 concentration after 48 hrs by annexin-V-FITC/propidium iodide staining based flow cytometric analysis (reference value: 0.7%); format: functional, HM-1:IMSS
[2] = test system: Entamoeba histolytica; experiment: Antimicrobial activity against Entamoeba histolytica […] trophozoites assessed as decrease in size of cells at IC50 concentration after 48 hrs by uranyl acetate staining based TEM analysis; format: functional, organism-based; details: HM-1:IMSS
[3] = test system: Entamoeba histolytica; experiment: Antimicrobial activity against Entamoeba histolytica […] trophozoites infected in Syrian hamster assessed as blood ureic nitrogen level at 0.1 mg/kg, ip at 4 days post infection and measured on day 8 (reference value: […]); format: functional, HM-1:IMSS; details: time 4 day
[4] = test system: Entamoeba histolytica; experiment: Antimicrobial activity against Entamoeba histolytica […] trophozoites infected in Syrian hamster assessed as glucose level at 0.1 mg/kg, ip at 4 days post infection and measured on day 8 (reference value: 126 +/- 18 mg/dl); format: functional, HM-1:IMSS; details: time 4 day
[5] = test system: Entamoeba histolytica; experiment: Antimicrobial activity against Entamoeba histolytica […] trophozoites infected in Syrian hamster assessed as total bilirubin level at 0.1 mg/kg, ip at 4 days post infection and measured on day 8 (reference value: 0.8 +/- 0.2 mg/dl); format: functional, HM-1:IMSS; details: time 4 day
[6] = test system: Entamoeba histolytica; experiment: Induction of apoptosis in Entamoeba histolytica […] trophozoites assessed as necrotic cells at IC50 concentration after 48 hrs by annexin-V-FITC/propidium iodide staining based flow cytometric analysis (reference value: 0.4%); format: functional, HM-1:IMSS
[7] = test system: Entamoeba histolytica; experiment: Antimicrobial activity against Entamoeba histolytica […] trophozoites infected in Syrian hamster assessed as urea level at 0.1 mg/kg, ip at 4 days post infection and measured on day 8 (reference value: 14 +/- 1 mg/dl); format: functional, HM-1:IMSS; details: time 4 day
[8] = test system: BEAS-2B; experiment: Cytotoxicity against human BEAS-2B cells assessed as reduction in cell viability after 24 hrs by MTT assay; format: cell-based
[9] = test system: Entamoeba histolytica; experiment: Antimicrobial activity against Entamoeba histolytica […] trophozoites infected in Syrian hamster assessed as platelets at 0.1 mg/kg, ip at 4 days post infection and measured on day 8 (reference value: 439 +/- 108 […]); format: functional, HM-1:IMSS; details: time 4 day
[10] = test system: Entamoeba histolytica; experiment: Induction of ROS generation in Entamoeba histolytica […] trophozoites at IC50 concentration incubated for 1 hr in presence of trolox by DCFDA staining based assay relative to control; format: functional, HM-1:IMSS
[11] = test system: Entamoeba histolytica; experiment: Antimicrobial activity against Entamoeba histolytica […] trophozoites infected in Syrian hamster assessed as triglycerides level at 0.1 mg/kg, ip at 4 days post infection and measured on day 8 (reference value: 395 +/- 41 mg/dl); format: functional, HM-1:IMSS; details: time 4 day
[12] = test system: CHO-K1; experiment: Cytotoxicity against CHO-K1 cells assessed as reduction in cell viability after 24 hrs by MTT assay; format: cell-based; details: Cricetulus griseus, CHO-K1, 24 h
[13] = test system: Entamoeba histolytica; experiment: Induction of ROS generation in Entamoeba histolytica […] trophozoites at IC50 concentration incubated for 1 hr by DCFDA staining based assay; format: functional, organism-based; details: HM-1:IMSS
[14] = test system: Entamoeba histolytica; experiment: Antimicrobial activity against Entamoeba histolytica […] trophozoites infected in Syrian hamster assessed as ALP level at 0.1 mg/kg, ip at 4 days post infection and measured on day 8 (reference value: 638 +/- 50 U/L); format: functional, HM-1:IMSS; details: time 4 day
[15] = test system: Entamoeba histolytica; experiment: Antimicrobial activity against Entamoeba histolytica HM1:MMS assessed as reduction in amoeba growth; format: functional, organism-based; details: HM-1:IMSS
[16] = test system: Entamoeba histolytica; experiment: Antimicrobial activity against Entamoeba histolytica […] trophozoites infected in Syrian hamster assessed as creatinine level at 0.1 mg/kg, ip at 4 days post infection and measured on day 8 (reference value: 0.9 +/- 0.06 mg/dl); format: functional, HM-1:IMSS; details: time 4 day
[17] = test system: Entamoeba histolytica; experiment: Antimicrobial activity against Entamoeba histolytica […] trophozoites infected in Syrian hamster assessed as ALT level at 0.1 mg/kg, ip at 4 days post infection and measured on day 8 (reference value: 276 +/- 24 U/L); format: functional, HM-1:IMSS; details: time 4 day
[18] = test system: Entamoeba histolytica; experiment: Induction of apoptosis in Entamoeba histolytica […] trophozoites assessed as early apoptotic cells at IC50 concentration after 48 hrs by annexin-V-FITC/propidium iodide staining based flow cytometric analysis (reference value: 0.9%); format: functional, HM-1:IMSS
[19] = test system: Entamoeba histolytica; experiment: Induction of apoptosis in Entamoeba histolytica […] trophozoites assessed as viable cells at IC50 concentration after 48 hrs by annexin-V-FITC/propidium iodide staining based flow cytometric analysis (reference value: 98%); format: functional, HM-1:IMSS
[20] = test system: Entamoeba histolytica; experiment: Antimicrobial activity against Entamoeba histolytica […] trophozoites assessed as abnormal condensation of chromatin at IC50 concentration after 48 hrs by uranyl acetate staining based TEM analysis; format: functional, organism-based; details: HM-1:IMSS
[21] = test system: Entamoeba histolytica; experiment: Antimicrobial activity against Entamoeba histolytica […] trophozoites assessed as decrease in granularity at IC50 concentration after 48 hrs by uranyl acetate staining based TEM analysis; format: functional, organism-based; details: HM-1:IMSS
[22] = test system: Entamoeba histolytica; experiment: Binding affinity to Entamoeba histolytica […] trophozoites actin assessed as formation of pseudo-plates at IC50 concentration incubated for 1 hrs by […] staining based confocal microscopic analysis

- Activity [22]: Active
SMILES: Cc1ncc([N+](=O)[O-])n1CCO [METRONIDAZOLE]
- Activity [1]: 2.9%
- Activity [2]: Active
- Activity [3]: 19 mg/dL
- Activity [4]: 148 mg/dL
- Activity [5]: 0.8 mg/dL
- Activity [6]: 0.3%
- Activity [7]: 41 mg/dL
- IC50 [8]: 2240 µM
- Activity [9]: 616 thousand/mm3
- Activity [10]: 49.11%
- Activity [11]: 335 mg/dL
- IC50 [12]: 2920 µM
- Activity [13]: Active
- Activity [14]: 185 U/L
- IC50 [15]: 22.9 µM
- Activity [16]: 1 mg/dL
- Activity [17]: 159 U/L
- Activity [18]: 5.5%
- Activity [19]: 91.3%
- Activity [20]: Active
- Activity [21]: Active
